Test [1] deals with TNF-α signaling in L929 cells. Description: Inhibition of TNF-α signaling in L929 cells (western blot). It is filed as cell-based, murine. As to conditions: 2 h pretreatment, TNF-α 20 ng/mL. The procedure:
The effect of compound I-9 on TNF-α signaling was examined in L929 cells (American Type Culture Collection, Manassas, Va.). Cells were cultured in RPMI (Invitrogen) containing 5% fetal bovine serum. Cells (1×10^6/well) were cultured in 6-well plates for 12 h, treated with or without small molecule for 2 h, and then stimulated with TNF-α at 20 ng/mL for the indicated periods. Cells were then washed with ice-cold phosphate-buffered saline and lysed with lysis buffer. Cell lysates ([…]) were separated by 12% SDS-PAGE, electroblotted onto nitrocellulose membrane (Osmonics, Westborough, Mass.), and probed with anti-phospho-IκBα, anti-IκBα, anti-phospho-p38, anti-p38, and anti-β-actin antibodies (Cell Signaling Technology, Inc., Beverly, Mass.) and developed using an enhanced chemiluminescence (ECL) system (Amersham Biosciences, Piscataway, N.J.).

The target of test [2] is T1, mutant TNF-R1 (Homo sapiens, UniProt P19438, F141E/Q111E).
T1 construct: The ectodomain of wild type TNF receptor 1 was obtained by PCR from pKP13; made in house
T1 sequence (P19438 30-211 Q111E/F141E limits assumed): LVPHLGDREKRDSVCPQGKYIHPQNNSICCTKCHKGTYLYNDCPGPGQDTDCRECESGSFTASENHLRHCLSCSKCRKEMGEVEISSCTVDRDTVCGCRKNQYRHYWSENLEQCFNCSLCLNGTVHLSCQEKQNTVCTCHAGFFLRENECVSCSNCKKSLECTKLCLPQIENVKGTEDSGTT
The test can be described thus: Isothermal titration calorimetry, binding to mutant TNF-R1 (82E, 112E). As to conditions: ITC, TNF-R1 mutated to 82E and 112E. The text has this: The ectodomain of wild type TNF receptor 1 was obtained by PCR from pKP13 (as described in Beutler et al., Annu. Rev. Biochem. 57, 505-518 (1988)) with 5′ primer AAAAAACATATGTACCCCTCAGGGGTTATTGG (SEQ ID NO:2) and 3′ primer CCGCTCGAGTCAATGATGATG ATGATG ATGTGTGGTGCCTGAGTCCTCAG, (SEQ ID NO:3) and constructed into PET21 (Novagen, San Diego, Calif.) between Nde1 and XhoT, verified by sequencing. Mutant TNF receptor 1 was obtained from site-directed mutagenesis by using a QuikChange mutagenesis kit (Stratagene, La Jolla, Calif.). The plasmid was then transformed into Origami™ (DE3) (Novagen, San Diego, Calif.). The cells were grown until A600 was 0.6 and were induced by addition of 0.2 mM of IPTG. The cells were then induced for 3 h and harvested by centrifugation at 3500 rpm for 10 min. The wild type and mutant TNF-R1 were all expressed in the inclusion bodies of the cells and were extracted and refolded as described in Lin et al., Biotechniques 11, 748 (December 1991). […]
The binding thermodynamics of inhibitors to the TNF receptor was measured by isothermal titration calorimetry (ITC) using a high-precision VP-ITC titration calorimetric system (MicroCal Inc, Northampton, Mass.). […] Data were analyzed and fitted using the data analysis software supplied by MicroCal (Origin version 5.0).
Background: In ITC the heat of successive injections is recorded.

With `CC(=O)Oc1ccc(C(C)(c2ccc(OC(C)=O)cc2)c2ccc(OC(C)=O)cc2)cc1` [Compound I-9, 1,1,1-Tris-(4-acetoxyphenyl)ethane], in test [1], the “production of phospho-IκBα following TNF-α treatment” value is listed as “reduced” and the “production of phospho-p38 following TNF-α treatment” value is reported as “reduced”. The “binding to the mutant receptor” value in test [2] was “no longer bound”.
